Results taken from US20250197406A1, “INDAZOLES AS HEMATOPOIETIC PROGENITOR KINASE 1 (HPK1) INHIBITORS AND METHODS FOR USING SAME” (1ST Biotherapeutics, Inc., priority 2022, published 2025).

Target: recombinant human HPK1 (Homo sapiens (Human), UniProt Q92918)
Assay: HPK1 kinase assay (Promega ADP-Glo kinase assay)
Format: biochemical
Details: In vitro activity against HPK1, 5 ng HPK1, MBP substrate, ATP 25 μM, 30° C. 40 minutes
Experimental: HPK1 kinase activity was measured by Promega's ADP-Glo™ kinase assay. In this assay, 5 ng of recombinant human HPK1 (signalchem) is incubated with 5 μL of compounds (0.5% DMSO), 5 μL of MBP (0.5 μg/μl) and 5 μL of ATP (25 μM) in buffer (40 mM Tris, 7.5; 20 mM MgCl2; 0.1 mg/ml BSA; 50 μM DTT.). The assay was started by incubating the reaction mixture in a 96-well plate at 30° C. for 40 minutes. After the incubation, 25 μL ADP-Glo reagent was added and the reaction was incubated at room temperature for 40-min to stop the reaction and degrade residual ATP. The ADP product was then converted to ATP by adding 50 μL per well of detection reagent. Luminescence was detected after 30-min room temperature incubation with the Molecular device I3X plate reader. The IC50 values were calculated from a series of percent inhibition values determined at a range of inhibitor concentration using software routines as implemented in the GraphPad Prism 7 software and SigmaPlot13.0.

recombinant human HPK1, sequence (Q92918 whole entry): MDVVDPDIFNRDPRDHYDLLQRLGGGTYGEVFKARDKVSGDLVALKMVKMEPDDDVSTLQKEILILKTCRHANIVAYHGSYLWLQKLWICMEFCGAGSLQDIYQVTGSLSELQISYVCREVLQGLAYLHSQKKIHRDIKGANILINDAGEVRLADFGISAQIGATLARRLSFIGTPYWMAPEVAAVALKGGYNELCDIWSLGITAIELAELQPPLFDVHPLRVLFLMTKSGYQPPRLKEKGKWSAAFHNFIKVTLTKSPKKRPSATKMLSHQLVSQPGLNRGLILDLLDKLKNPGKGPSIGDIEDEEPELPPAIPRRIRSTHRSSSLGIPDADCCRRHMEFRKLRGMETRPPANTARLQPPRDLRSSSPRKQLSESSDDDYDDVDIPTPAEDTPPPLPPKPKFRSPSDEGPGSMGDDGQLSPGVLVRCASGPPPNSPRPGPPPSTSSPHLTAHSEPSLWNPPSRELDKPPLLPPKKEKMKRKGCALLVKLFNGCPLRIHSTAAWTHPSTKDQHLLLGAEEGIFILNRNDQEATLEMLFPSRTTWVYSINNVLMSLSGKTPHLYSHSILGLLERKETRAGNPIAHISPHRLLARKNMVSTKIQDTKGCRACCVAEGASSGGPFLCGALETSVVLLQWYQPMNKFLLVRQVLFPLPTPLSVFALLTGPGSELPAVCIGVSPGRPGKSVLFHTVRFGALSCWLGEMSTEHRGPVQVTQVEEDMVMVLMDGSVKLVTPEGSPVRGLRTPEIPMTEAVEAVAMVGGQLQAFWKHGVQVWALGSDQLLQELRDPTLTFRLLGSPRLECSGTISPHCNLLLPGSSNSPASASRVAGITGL

| SMILES | IC50 |
| --- | --- |
| COC(=O)NC1(C(=O)Nc2cn3cc(-c4c(Cl)c(F)c(NC(C)C)c5[nH]ncc45)ncc3n2)CC1 [Example 47, methyl (1-((6-(5-chloro-6-fluoro-7-(isopropylamino)-1H-indazol-4-yl)imidazo[1,2-a]pyrazin-2-yl)carbamoyl)cyclopropyl)carbamate] | 501 to 1000 nM |
| CNC(=O)Nc1cn2cc(-c3c(Cl)c(F)c(NC(C)C)c4[nH]ncc34)ncc2n1 [Example 121, 1-(6-(5-chloro-6-fluoro-7-(isopropylamino)-1H-indazol-4-yl)imidazo[1,2-a]pyrazin-2-yl)-3-methylurea] | 501 to 1000 nM |
| CC(N)c1c(F)c(C(F)F)c(-c2cn3cc(NC(=O)[C@@H]4C[C@@H]4F)nc3cn2)c2cn[nH]c12 (stereo partly drawn) [Example 55, (1S,2S)-N-(6-(7-(1-aminoethyl)-5-(difluoromethyl)-6-fluoro-1H-indazol-4-yl)imidazo[1,2-a]pyrazin-2-yl)-2-fluorocyclopropane-1-carboxamide] | 101 to 500 nM |
| Cc1c(F)c(C(C)N)c2[nH]ncc2c1-c1cn2cc(NC(=O)[C@@H]3C[C@@H]3F)nc2cn1 (stereo partly drawn) [Example 25, (1S,2S)-N-(6-(7-(1-aminoethyl)-6-fluoro-5-methyl-1H-indazol-4-yl)imidazo[1,2-a]pyrazin-2-yl)-2-fluorocyclopropane-1-carboxamide] | 101 to 500 nM |
| CC(=O)NC(C)c1c(F)c(C(F)F)c(-c2cn3cc(NC(=O)[C@@H]4C[C@@H]4F)nc3cn2)c2cn[nH]c12 (stereo partly drawn) [Example 53, (1S,2S)-N-(6-(7-(1-acetamidoethyl)-5-(difluoromethyl)-6-fluoro-1H-indazol-4-yl)imidazo[1,2-a]pyrazin-2-yl)-2-fluorocyclopropane-1-carboxamide] | < 100 nM |
| CC(C)Nc1c(F)c(Cl)c(-c2cn3cc(NC(=O)C4CCN(C)CC4)nc3cn2)c2cn[nH]c12 [Example 123, N-(6-(5-chloro-6-fluoro-7-(isopropylamino)-1H-indazol-4-yl)imidazo[1,2-a]pyrazin-2-yl)-1-methylpiperidine-4-carboxamide] | < 100 nM |
| Cc1c(F)c(C(C)C(F)F)c2[nH]ncc2c1-c1cn2cc(NC(=O)[C@@H]3C[C@@H]3F)nc2cn1 (stereo partly drawn) [Example 5, (1S,2S)-N-(6-(7-(1,1-difluoropropan-2-yl)-6-fluoro-5-methyl-1H-indazol-4-yl)imidazo[1,2-a]pyrazin-2-yl)-2-fluorocyclopropane-1-carboxamide] | < 100 nM |
| C[C@@H](NC(=O)C(F)(F)F)c1c(F)c(Cl)c(-c2cn3cc(NC(=O)[C@@H]4C[C@@H]4F)nc3cn2)c2cn[nH]c12 [Example 137, (1S,2S)-N-(6-(5-chloro-6-fluoro-7-((R)-1-(2,2,2-trifluoroacetamido)ethyl)-1H-indazol-4-yl)imidazo[1,2-a]pyrazin-2-yl)-2-fluorocyclopropane-1-carboxamide] | < 100 nM |
| CC(C)Nc1c(F)c(Cl)c(-c2cn3cc(NC(=O)[C@@H](C)N(C)C)nc3cn2)c2cn[nH]c12 [Example 106, (R)-N-(6-(5-chloro-6-fluoro-7-(isopropylamino)-1H-indazol-4-yl)imidazo[1,2-a]pyrazin-2-yl)-2-(dimethylamino)propanamide] | 501 to 1000 nM |
| CCC(=O)Nc1cn2cc(-c3c(C(F)F)c(F)c(NC(C)C)c4[nH]ncc34)ncc2n1 [Example 155, N-(6-(5-(difluoromethyl)-6-fluoro-7-(isopropylamino)-1H-indazol-4-yl)imidazo[1,2-a]pyrazin-2-yl)propionamide] | < 100 nM |
| CC(C)Nc1c(F)c(Cl)c(-c2cn3cc(NC(=O)[C@@H]4C[C@@H]4C(N)=O)nc3cn2)c2cn[nH]c12 [Example 39, (1R,2S)-N1-(6-(5-chloro-6-fluoro-7-(isopropylamino)-1H-indazol-4-yl)imidazo[1,2-a]pyrazin-2-yl)cyclopropane-1,2-dicarboxamide] | < 100 nM |
| CC(C)Nc1c(F)c(Cl)c(-c2cn3cc(NC(=O)N4CCCC4)nc3cn2)c2cn[nH]c12 [Example 124, N-(6-(5-chloro-6-fluoro-7-(isopropylamino)-1H-indazol-4-yl)imidazo[1,2-a]pyrazin-2-yl)pyrrolidine-1-carboxamide] | < 100 nM |
| CC(C)Nc1c(F)c(Cl)c(-c2cn3cc(NC(=O)C4CCCO4)nc3cn2)c2cn[nH]c12 (centres unmarked) [Example 111, N-(6-(5-chloro-6-fluoro-7-(isopropylamino)-1H-indazol-4-yl)imidazo[1,2-a]pyrazin-2-yl)tetrahydrofuran-2-carboxamide] | 101 to 500 nM |
| CC(NC=O)c1c(F)c(C(F)F)c(-c2cn3cc(NC(=O)[C@@H]4C[C@@H]4F)nc3cn2)c2cn[nH]c12 (stereo partly drawn) [Example 75, (1S,2S)-N-(6-(5-(difluoromethyl)-6-fluoro-7-(1-formamidoethyl)-1H-indazol-4-yl)imidazo[1,2-a]pyrazin-2-yl)-2-fluorocyclopropane-1-carboxamide] | < 100 nM |

Further lines, results first:

| IC50 | SMILES |
| --- | --- |
| < 100 nM | CC(C)Nc1c(F)c(Cl)c(-c2cn3cc(NC(=O)C4COC4)nc3cn2)c2cn[nH]c12 [Example 131, N-(6-(5-chloro-6-fluoro-7-(isopropylamino)-1H-indazol-4-yl)imidazo[1,2-a]pyrazin-2-yl)oxetane-3-carboxamide] |
| < 100 nM | CC(=O)NCC(C)c1c(F)c(C(F)(F)F)c(-c2cn3cc(NC(=O)[C@@H]4C[C@@H]4F)nc3cn2)c2cn[nH]c12 (stereo partly drawn) [Example 99, (1S,2S)-N-(6-(7-(1-acetamidopropan-2-yl)-6-fluoro-5-(trifluoromethyl)-1H-indazol-4-yl)imidazo[1,2-a]pyrazin-2-yl)-2-fluorocyclopropane-1-carboxamide] |
| < 100 nM | CC(C)Nc1c(F)c(Cl)c(-c2cn3cc(NC(=O)C(C)C)nc3cn2)c2cn[nH]c12 [Example 81, N-(6-(5-chloro-6-fluoro-7-(isopropylamino)-1H-indazol-4-yl)imidazo[1,2-a]pyrazin-2-yl)isobutyramide] |
| < 100 nM | Cc1c(F)c(C2=CC(O)CC2)c2[nH]ncc2c1-c1cn2cc(NC(=O)[C@@H]3C[C@@H]3F)nc2cn1 (stereo partly drawn) [Example 15, (1S,2S)-2-fluoro-N-(6-(6-fluoro-7-(3-hydroxycyclopent-1-en-1-yl)-5-methyl-1H-indazol-4-yl)imidazo[1,2-a]pyrazin-2-yl)cyclopropane-1-carboxamide] |
| < 100 nM | CSCC(=O)Nc1cn2cc(-c3c(Cl)c(F)c(NC(C)C)c4[nH]ncc34)ncc2n1 [Example 100, N-(6-(5-chloro-6-fluoro-7-(isopropylamino)-1H-indazol-4-yl)imidazo[1,2-a]pyrazin-2-yl)-2-(methylthio)acetamide] |
| < 100 nM | CC(C)Nc1c(F)c(Cl)c(-c2cn3cc(NC(=O)CO)nc3cn2)c2cn[nH]c12 [Example 129, N-(6-(5-chloro-6-fluoro-7-(isopropylamino)-1H-indazol-4-yl)imidazo[1,2-a]pyrazin-2-yl)-2-hydroxyacetamide] |
| < 100 nM | CCCCC(=O)Nc1cn2cc(-c3c(Cl)c(F)c(NC(C)C)c4[nH]ncc34)ncc2n1 [Example 117, N-(6-(5-chloro-6-fluoro-7-(isopropylamino)-1H-indazol-4-yl)imidazo[1,2-a]pyrazin-2-yl)pentanamide] |
| < 100 nM | COCC(C)c1c(F)c(C)c(-c2cn3cc(NC(=O)[C@@H]4C[C@@H]4F)nc3cn2)c2cn[nH]c12 (stereo partly drawn) [Example 4, (1S,2S)-2-fluoro-N-(6-(6-fluoro-7-(1-methoxypropan-2-yl)-5-methyl-1H-indazol-4-yl)imidazo[1,2-a]pyrazin-2-yl)cyclopropane-1-carboxamide] |
| < 100 nM | CC(C)Nc1c(F)c(C(F)(F)F)c(-c2cn3cc(NC(=O)[C@@H]4C[C@@H]4CO)nc3cn2)c2cn[nH]c12 [Example 104, (1R,2S)-N-(6-(6-fluoro-7-(isopropylamino)-5-(trifluoromethyl)-1H-indazol-4-yl)imidazo[1,2-a]pyrazin-2-yl)-2-(hydroxymethyl)cyclopropane-1-carboxamide] |
| < 100 nM | CCC(=O)Nc1cn2cc(-c3c(Cl)c(F)c(NC(C)C)c4[nH]ncc34)ncc2n1 [Example 61, N-(6-(5-chloro-6-fluoro-7-(isopropylamino)-1H-indazol-4-yl)imidazo[1,2-a]pyrazin-2-yl)propionamide] |
| < 100 nM | CC(C)Nc1c(F)c(Cl)c(-c2cn3cc(NC(=O)CN)nc3cn2)c2cn[nH]c12 [Example 80, 2-amino-N-(6-(5-chloro-6-fluoro-7-(isopropylamino)-1H-indazol-4-yl)imidazo[1,2-a]pyrazin-2-yl)acetamide] |
| < 100 nM | CC(c1c(F)c(C(F)F)c(-c2cn3cc(NC(=O)[C@@H]4C[C@@H]4F)nc3cn2)c2cn[nH]c12)N1C(=O)c2ccccc2C1=O (stereo partly drawn) [Example 50, (1S,2S)-N-(6-(5-(difluoromethyl)-7-(1-(1,3-dioxoisoindolin-2-yl)ethyl)-6-fluoro-1H-indazol-4-yl)imidazo[1,2-a]pyrazin-2-yl)-2-fluorocyclopropane-1-carboxamide] |
| < 100 nM | CC(=O)Nc1cn2cc(-c3c(C(F)(F)F)c(F)c(NC(C)C)c4[nH]ncc34)ncc2n1 [Example 83, N-(6-(6-fluoro-7-(isopropylamino)-5-(trifluoromethyl)-1H-indazol-4-yl)imidazo[1,2-a]pyrazin-2-yl)acetamide] |
| < 100 nM | CC(C)Nc1c(F)c(Cl)c(-c2cn3cc(NC=O)nc3cn2)c2cn[nH]c12 [Example 112, N-(6-(5-chloro-6-fluoro-7-(isopropylamino)-1H-indazol-4-yl)imidazo[1,2-a]pyrazin-2-yl)formamide] |
| < 100 nM | COC(=O)Nc1cn2cc(-c3c(Cl)c(F)c(NC(C)C)c4[nH]ncc34)ncc2n1 [Example 113, methyl (6-(5-chloro-6-fluoro-7-(isopropylamino)-1H-indazol-4-yl)imidazo[1,2-a]pyrazin-2-yl)carbamate] |
